Measured values reported in patent US20040171680A1, “Treating Syndrome X with substituted tetralins and indanes” (priority 2002, published 2004).
Like-named read-outs stand apart in the source and are kept apart here.

Experiments:
db/db mice = assay: Oral dosing in female db/db mice; type: in vivo; conditions: Mus musculus, 1.0 mpk, % change compared to vehicle
Procedure: The compound was prepared as suspensions in 0.5% hydroxypropylmethylcellulose (Dow Chemical, Midland, Mich.). The dosing volume was 10 mL/kg of body weight. […] Body weight was measured in the mornings on Day 1, prior to dosing, and on Day 12 before bleeding. 18-24 hours after the final dose for each group, the mice were anesthetized with CO2/O2 (70:30) and bled by retro-orbital sinus puncture into micro-tubes containing clog activator and then put in ice. The serum samples were prepared by centrifugation. Serum glucose and triglycerides were determined by using COBAS Mira Plus blood chemistry analyzer (Roche Diagnostics, N.J.). Serum insulin was measured by using ALPCO insulin ELISA kit.
Statistical analysis was performed using the program Prism (Graphpad, Monrovia, Calif.) and performing one-way ANOVA with a Dunnet's multiple comparison test.

[1] = Comparison of (S) and (R) isomer activity (test not stated); conditions: chiral center on C-2 of the indane ring
PPARδ = molecular target: T1, PPARδ (Homo sapiens, UniProt Q03181); assay: Transfection Assay for PPARδ Receptors (PPAR-Gal4 / Gal4-Luciferase reporter in HEK293 cells); type: cell-based; conditions: fold induction; PPARδ standard: FI = 36.1
T1 construct: a Gal4-Luciferase reporter is co-transfected
T1 sequence (Q03181 171-441 limits assumed): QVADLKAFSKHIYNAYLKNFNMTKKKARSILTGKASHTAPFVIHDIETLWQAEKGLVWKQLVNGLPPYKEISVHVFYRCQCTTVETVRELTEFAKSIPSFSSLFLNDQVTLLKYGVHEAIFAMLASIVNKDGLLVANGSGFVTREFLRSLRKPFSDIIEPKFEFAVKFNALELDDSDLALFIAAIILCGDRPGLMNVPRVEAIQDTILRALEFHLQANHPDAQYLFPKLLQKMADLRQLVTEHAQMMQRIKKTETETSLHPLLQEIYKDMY
Outline: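 HEK293 cells co-transfected with PPAR-Gal4 receptor and Gal4-luciferase reporter, then moved into 5% charcoal-treated FBS medium. Compounds applied for 24 h at 37 °C, 5% CO2; luciferase activity read with Steady-Glo.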

PPARγ = molecular target: T2, PPARγ (Homo sapiens, UniProt P37231); assay: aP2 Assay for PPAR gamma Agonists (bDNA aP2 mRNA in preadipocytes); type: cell-based; conditions: fold induction; PPARγ standard: FI = 70.3
T2 construct: Following the challenge of the preadipocytes, cells may be lysed with lysis buffer; endogenous in cells; host or cells: preadipocytes
T2 sequence (P37231 1-505): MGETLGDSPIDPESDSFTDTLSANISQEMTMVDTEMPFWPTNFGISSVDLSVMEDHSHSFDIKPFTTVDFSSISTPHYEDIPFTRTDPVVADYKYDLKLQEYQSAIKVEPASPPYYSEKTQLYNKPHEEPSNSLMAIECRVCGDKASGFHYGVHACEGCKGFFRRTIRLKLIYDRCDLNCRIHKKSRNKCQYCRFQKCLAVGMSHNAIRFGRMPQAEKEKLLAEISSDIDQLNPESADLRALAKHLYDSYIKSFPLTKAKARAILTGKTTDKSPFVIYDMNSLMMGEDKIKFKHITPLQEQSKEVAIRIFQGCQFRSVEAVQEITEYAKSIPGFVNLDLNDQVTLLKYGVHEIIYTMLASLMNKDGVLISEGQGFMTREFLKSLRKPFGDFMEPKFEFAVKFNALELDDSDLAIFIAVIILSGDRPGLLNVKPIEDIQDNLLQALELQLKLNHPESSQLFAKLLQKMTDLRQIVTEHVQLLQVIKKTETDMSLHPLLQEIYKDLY
Text: aP2 Assay for PPAR gamma Agonists
The procedure is described in detail in Burris et al., Molecular Endocrinology, 1999, 13:410, which is hereby incorporated by reference in its entirety, and aP2 assay results of agonist intrinsic activity may be presented as fold increase over vehicle in induction of aP2 mRNA production.
Twenty-four hours after the initial seeding of the 96-well plates by hand (around 20,000/well), the differentiation assay may be initiated. Medium may be removed and replaced with […] of differentiation medium containing vehicle (DMSO) or test compounds. Cells may be returned to incubator for 24 hours culture. At the termination of the challenge, medium may be removed and 100 ul of lysis buffer may be added to initiate the bDNA aP2 mRNA assay. The branched DNA assay may be performed according to the manufacturer's protocol (Bayer Diagnostics; Emeryville, Calif.). Result may be expressed as the fold increase of aP2 mRNA production activated over vehicle controls. EC50's and Emax may be determined by non-linear regression with a sigmoidal fit curve.
Following the challenge of the preadipocytes, cells may be lysed with lysis buffer (Bayer Diagnostics) containing the aP2 oligonucleotides. After a 15 minute incubation at 53° C. or 30 minutes at 37° C. incubator, 70 ul of the lysis buffer from each well may be added to a corresponding capture well (preincubated with 70 ul of blocking buffer (Bayer Diagnostics)). The capture plate may be incubated overnight at 53° C. in a plate incubator (Bayer Diagnostics). After this incubation, the bDNA and labeled probes may be annealed as directed by the manufacturer. Following a 30-minute incubation with the luminescent alkaline phosphatase substrate, dioxitane, the luminescence may be quantitated in a Dynex MLX microtiter plate luminometer. Oligonucleotide probes designed to anneal to the aP2 mRNA and function in the bDNA mRNA detection system are designed with ProbeDesigner software (Bayer Diagnostics). This software package analyzes a target sequence of interest with a series of algorithms in order to determine which regions of the sequence can perform as locations for capture, label, or spacer probe annealing. The sequences of the oligonucleotides are as follows: […]

PPARα = molecular target: T3, PPARα (Rattus norvegicus, UniProt P37230); assay: HD bDNA Assay (HD gene induction); type: cell-based; conditions: in section F; target not named there, values match the PPARα column; read-out: EC50
T3 construct: H4IIE rat hepatoma cell line was obtained from ATCC; host or cells: H4IIE rat hepatoma cells
T3 sequence (P37230 1-468): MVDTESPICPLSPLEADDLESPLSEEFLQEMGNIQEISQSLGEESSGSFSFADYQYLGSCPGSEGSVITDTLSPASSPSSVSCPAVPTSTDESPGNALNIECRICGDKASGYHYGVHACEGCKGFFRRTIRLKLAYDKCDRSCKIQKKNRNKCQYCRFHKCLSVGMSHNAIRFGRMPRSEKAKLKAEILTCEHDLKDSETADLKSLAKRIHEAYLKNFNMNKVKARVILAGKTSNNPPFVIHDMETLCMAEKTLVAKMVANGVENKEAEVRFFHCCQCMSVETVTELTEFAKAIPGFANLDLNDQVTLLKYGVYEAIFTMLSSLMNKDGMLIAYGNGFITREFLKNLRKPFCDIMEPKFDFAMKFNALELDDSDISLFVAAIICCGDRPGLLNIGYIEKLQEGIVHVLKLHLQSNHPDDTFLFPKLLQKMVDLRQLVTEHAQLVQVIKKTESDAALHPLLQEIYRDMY
Outline: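 H4IIE rat hepatoma cells (~100,000/well) treated 24 hours at 37° C in low-serum medium (5% charcoal/dextran-treated calf serum) with compounds. HD mRNA quantified by branched DNA luminescence assay; EC50's from sigmoidal non-linear regression.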

[2] = 120 h, 5 day oral dosing, read-out: Δ Plasma Glucose
[3] = 120 h, 5 day oral dosing, read-out: Δ Plasma Insulin
[4] = 120 h, 5 day oral dosing, read-out: Δ Plasma TG
[5] = 120 h, 5 day oral dosing, read-out: Δ BW

Row | PPARδ FI (PPARδ) | PPARγ FI (PPARγ) | EC50 (PPARα) [nM] | SMILES | change in vivo at 1 mg/kg (db/db mice; [2]) [%] | change in vivo at 1 mg/kg (db/db mice; [3]) [%] | change in vivo at 1 mg/kg (db/db mice; [4]) [%] | change in vivo at 1 mg/kg (db/db mice; 264 h, 11 day oral dosing, read-out: Δ BW) [%] | activity of the (S) isomer compared with the (R) isomer [1] | change in vivo at 1 mg/kg (db/db mice; [5]) [%]
1 | – | – | – | CCN(C(=O)Nc1ccc(OC(F)(F)F)cc1)[C@H]1Cc2ccc(SC(C)(C)C(=O)O)cc2C1 [Example 3, (S)-2-{2-[1-Ethyl-3-(4-trifluoromethoxyphenyl)ureido]indan-5-ylsulfanyl}-2-methylpropionic acid] | -66 | -69 | -66 | -136 | the (S) isomer is more active than the (R) isomer | –
2 | 2.5 | 4.0 | 53 | CCCCCN(C(=O)Nc1ccc(SC(F)(F)F)cc1)C1Cc2ccc(SC(C)(C)C(=O)O)cc2C1 (stereo not shown) [Example 5, 2-Methyl-2-{2-[1-pentyl-3-(4-trifluoromethylsulfanylphenyl)ureido]indan-5-ylsulfanyl}propionic acid] | -31 | -43 | -19 | – | – | 56
3 | 3.6 | 1.9 | 56 | CCN(C(=O)Nc1ccc(C(C)C)cc1)C1Cc2ccc(SC(C)(C)C(=O)O)cc2C1 (stereo not shown) [Example 6, 2-{2-[1-Ethyl-3-(4-isopropylphenyl)ureido]indan-5-ylsulfanyl}-2-methylpropionic acid] | -49 | -19 | -50 | – | – | -54
4 | 0.8 | 0 | 75 | CCN(C(=O)Nc1ccc(N(C)C)cc1)C1Cc2ccc(SC(C)(C)C(=O)O)cc2C1 (stereo not shown) [Example 7, 2-{2-[3-(4-Dimethylaminophenyl)-1-ethylureido]indan-5-ylsulfanyl}-2-methylpropionic acid] | -44 | -40 | -63 | – | – | -27
5 | 5.9 | 1.9 | 73 | CCCCCN(C(=O)Nc1ccc(OC(F)(F)F)cc1)C1Cc2ccc(SC(C)(C)C(=O)O)cc2C1 (stereo not shown) [Example 8, 2-Methyl-2-{2-[1-pentyl-3-(4-trifluoromethoxyphenyl)ureido]indan-5-ylsulfanyl}-2-methylpropionic acid] | -28 | -38 | -27 | – | – | -2
6 | 1.0 | 2.9 | 131 | CCCCCN(C(=O)Nc1ccc(N(C)C)cc1)C1Cc2ccc(SC(C)(C)C(=O)O)cc2C1 (stereo not shown) [Example 9, 2-{2-[3-(4-Dimethylaminophenyl)-1-pentylureido]indan-5-ylsulfanyl}-2-methylpropionic acid] | -13 | -40 | -6 | – | – | 0.05
